Laboratory results published in patent US11236102B2, “Oxabicycloheptane prodrugs” (Lixte Biotechnology, Inc., priority 2015, dated 2022).
Read-outs that look alike come from different tables or passages of the source.

Tests used:
[1] = rat, in vivo
[2] = Pharmacokinetic study of 151 (iv, oral) in SD rats: 151 and 100 in plasma; format: in vivo; conditions: male, rat, in vivo, iv, 1 mg/kg, 5 h
Method: The absolute bioavailability was evaluated.
To each sample, 160 μL of acetonitrile were added.
The mass spectrometer was operated in the positive mode.
Quantification was achieved by the external standard method.
Calibration Curve for Plasma Samples
LB100 concentrations of the LB151 plasma samples were also measured and pharmacokinetic parameters were calculated.

in vivo [3] = format: in vivo; conditions: rat, in vivo
Method: 100 was administrated via iv route at 0.5, 1.0 and 1.5 mg/kg into SD rats. The blood, liver and brain tissue samples were collected at predetermined times from rats.
Twelve (12) female SD rats per group were dosed by iv with 100. The rats were fasted overnight prior to dosing, with free access to water. Foods were withheld for 2 hours post-dose. Blood, liver and brain tissue samples in two animals each group were collected at each time point, within 10% of the scheduled time for each time point. Two extra animals were used for analytic method development. Blood (>0.3 mL) were collected via aorta abdominalis in anaesthetic animals into tubes containing heparin at 15 min, 1, 2, 6, 10 and 24 hours after iv administration. Liver and brain tissues were collected immediately after animal death. The liver and brain tissues were excised and rinsed with cold saline to avoid blood residual. Upon collection, each sample was placed on ice and the blood samples were subsequently centrifuged (4° C., 11000 rpm, 5 min) to separate plasma. The obtained plasma, liver and brain tissue samples were stored at −70° C. until LC-MS/MS analysis.
AUC0-∞ (AUCINF) is the area under the plasma concentration-time curve with last concentration extrapolated based on the elimination rate constant.

[4] = system: broad spectrum of human cancer cell lines; assay: Activity of compound 100 against human cancer cell lines; format: cell-based
[5] = Stability in the presence of microsomes; format: in vitro ADME; conditions: mouse, rat, dog, monkey, and human microsomes; relative to verapamil
[6] = female dogs, day 4, cited from earlier work
in vivo [7] = conditions: rat, iv, 1.4 mg/kg
Method: 113 was dissolved in 4% NaHCO3 in saline for IV administration. The detailed procedure of dosing solution preparation was presented in Appendix I.
15 animals were placed on the study. The animals in IV arm were free access to food and water. For PO dose group, the animals were fasted overnight prior to dosing and the food was resumed 4 hours postdose.
The IV injection was conducted via foot dorsal vein. PO via oral gavage.
Blood collection: The animal is restrained manually. Approximately 200 μL of blood/time point is collected into sodium heparin tube via cardiac puncture for terminal bleeding (anesthetized under carbon dioxide). Blood sample will be put on ice and centrifuged to obtain plasma sample (2000 g, 5 min under 4° C.) within 10 minutes.
Liver collection: The animal will be euthanized with carbon dioxide inhalation. Open abdominal cavity with scissor to expose internal organs. Hold the carcass in an upright position and allow the organs to fall forward. Cut the connective tissues and remove the organs. Then the organs are rinsed with cold saline, dried on filtrate paper, placed into a screw-top tube and weighed, snap frozen by placing into dry-ice immediately.
Brain collection: Make a mid-line incision in the animals scalp and retract the skin. Using small bone cutters and rongeurs, remove the skull overlying the brain. Remove the brain using a spatula and rinse with cold saline, dried on filtrate paper, placed into a screw-top tube and weighed, snap frozen by placing into dry-ice immediately. […] Plasma, brain and liver samples were stored at approximately −80° C. until analysis. The backup samples will be discarded after three weeks after in-life completion unless requested. The unused dosing solutions will be discarded within three weeks after completion of the study.
Pharmacokinetic Analysis Software: The PK parameters were determined by non-compartmental model of non-compartmental analysis tool, Pharsight Phoenix WinNonlin® 6.2 software. […] Concentration data within 80%-120% of LLOQ was considered within normal instrumental variation and presented in the results. Terminal t1/2 calculation: Time points were automatic selected by “best fit” model for terminal half life estimation as the first option. Manual selection was applied when “best fit” could not well define the terminal phase. Results

U251 human GBM cells = conditions: compound 100 ip plus radiation
Method: Compound 100 is a serine-threonine phosphatase inhibitor that potentiates the activity of standard chemotherapeutic drugs and radiation. The mechanism of potentiation is impairment of multiple steps in a DNA-damage repair process and inhibition of exit from mitosis. […] Mice bearing subcutaneous (sc) xenografts of U251 human GBM cells were treated with compound 100 intraperitoneally together with radiation, each given daily for 5 days×3 courses.

[8] = female rats, day 4, cited from earlier work
[9] = rat, in vivo; remark: listed apart in the source
[10] = Radiation dose enhancement by compound 100; conditions: compound 100 treatment
[11] = system: PP2A in circulating white blood cells; assay: Inhibition of PP2A in circulating white blood cells after slow iv 100; format: in vivo; conditions: rat
[12] = male, SD, Liver-plasma concentration ratio of 100
[13] = male, SD, liver concentration of 100
[14] = male, SD, plasma concentration of 100
[15] = male, Sprague-Dawley, Liver-plasma concentration ratio of 100

Q: Which results are given for `CN1CCN(C(=O)C2C3CCC(O3)C2C(=O)O)CC1` (centres unmarked) [Compound 100]?
A: passage of blood brain barrier (BBB) [1]: does not readily pass the blood brain barrier (BBB); Plasma Concentrations of 100 ([2]; Sprague-Dawley (SD)): 5.10 ng/mL; Plasma Concentrations of 100 ([2]; Sprague-Dawley): 10.2 ng/mL; half-life (in vivo [3]; Sprague-Dawley): ≤ 1 h; mean Cmax in plasma (in vivo [3]; female, Sprague-Dawley, iv, 1.5 mg/kg): 1110 to 3664 ng/mL; detectability in liver and brain tissue samples (in vivo [3]; iv): detectable; AUClast in brain (in vivo [3]; iv, 1.5 mg/kg): 10.8 to 125.5 ng·h/g; AUClast in liver (in vivo [3]; iv, 1.5 mg/kg): 758.6 to 9081.0 ng·h/g; IC50 [4]: 1000 to 3000 nM; stability in presence of microsomes [5]: stable relative to verapamil; Co ([6]; 0.15 mg/kg): 566 ng/mL; Co ([6]; 0.30 mg/kg): 857 ng/mL; Co ([6]; 0.50 mg/kg): 1930 ng/mL; plasma concentration of 100 (in vivo [7]; male, SD, 6 hr): 3.25 ng/mL; Kp at 0.25 hr (in vivo [7]; [12]): 4.1; Kp at 1 hr (in vivo [7]; [12]): 4.98; concentration at 0.25 hr (in vivo [7]; [13]): 2090 ng/g; concentration at 1 hr (in vivo [7]; [13]): 1360 ng/g; concentration at 2 hr (in vivo [7]; [13]): 425 ng/g; concentration at 6 hr (in vivo [7]; [13]): 23.8 ng/g; concentration at 0.25 hr (in vivo [7]; [14]): 510 ng/mL; concentration at 1 hr (in vivo [7]; [14]): 273 ng/mL; concentration at 6 hr (in vivo [7]; [14]): 3.25 ng/mL; AUC(0-t) ratio of liver over plasma (in vivo [7]; male, Sprague-Dawley): 399; Liver-plasma concentration ratio of 100 (in vivo [7]; male, Sprague-Dawley, 6 hr): 7.32; Kp at 2 hr (in vivo [7]; [15]): 4.95; Kp at 6 hr (in vivo [7]; [15]): 7.32; AUC(0-last) in liver (in vivo [7]): 2804 ng·h/g; AUC(0-∞) in liver (in vivo [7]): 2834 ng·h/g; AUClast-liver/AUClast-plasma of 100 (in vivo [7]): 399; recurrence of the remaining 40% of xenografts vs radiation alone (U251 human GBM cells): two months later; xenografts eliminated (U251 human GBM cells; daily for 5 days x 3 courses, 6 months plus follow-up): 60%; % AUC* Extrapolated ([8]; 0.5 mg/kg): 5.6%; Co ([8]; 0.5 mg/kg): 1497 ng/mL; DN AUClast ([8]; 0.5 mg/kg): 904; % AUC* Extrapolated ([8]; 0.75 mg/kg): 27%; Co ([8]; 0.75 mg/kg): 2347 ng/mL; DN AUClast ([8]; 0.75 mg/kg): 921; % AUC* Extrapolated ([8]; 1.25 mg/kg): 17%; Co ([8]; 1.25 mg/kg): 3849 ng/mL; DN AUClast ([8]; 1.25 mg/kg): 1887; oral bioavailability [9]: 1%; plasma level after oral administration [9]: little is present in plasma after oral administration; radiation dose enhancement factor [10]: 1.45; inhibition of PP2A in circulating white blood cells ([11]; slow iv 100 at 0.375 mg/kg): 9%; inhibition of PP2A in circulating white blood cells ([11]; slow iv 100 at 0.75 mg/kg): 15%; inhibition of PP2A in circulating white blood cells ([11]; slow iv 100 at 1.5 mg/kg): 25%
